Here are results for 5 compounds from US20230391732A1, “MULTI-EFFICACY PYRAZINE COMPOUND, PREPARATION METHOD AND USE THEREOF” (SHENZHEN OLIVE BIOPHARMACEUTICALS CO., LTD, priority 2020, published 2023).

For assay [1], the system named is db/db mice. Briefly: Glucose and lipid metabolism in db/db mice, 56 d administration. The format is in vivo. To be noted: TMP 5.0 mg/kg, OLB-3 13.32 mg/kg, mean±SEM, n=6. The procedure: Mice of a normal control group (WT) and model mice were given normal saline 10 ml/kg/d, Losartan 15 mg/kg/d, TMP (5.0 mg/kg, 0.037 mmol/kg), and OLB-3 (13.32 mg/kg, 0.037 mmol/kg), at a volume of 10 mL/kg, once/d, for continuous administration of 56 d, blood lipids and blood glucose related indexes were measured after blood collection. Data were presented as mean±SEM; n=6 per group.

Assay [2] deals with db/db mice. The assay is described as follows: Biochemical and metabolic indicators in db/db mice, 56 d administration. The format is in vivo. To be noted: Losartan 15 mg/kg/d, TMP 5.0 mg/kg, OLB-3 13.32 mg/kg, n=6; for Urine albumin/creatinine: once/d for 56 d, mean, SEM.
Assay [3] has as its system ALS (SOD-G93A) mice. The assay is described as follows: Pole climbing test in ALS transgenic mice. Format: in vivo. The note with it: riluzole 5 mg/kg, FIG. 6. An excerpt:
The pole climbing test is generally used to evaluate a movement coordination ability, movement delay of the limbs in mice, and muscle strength. A homemade wooden pole about 50 cm long and about 1 cm in diameter was wrapped with medical gauze to increase friction of the wooden pole. The wooden pole was put vertically on a horizontal table, the mouse tail was grabbed such that the mouse head was facing down, with limbs grabbing a top of the pole; the timer was started after releasing the mouse tail, and it was ensured that the mouse crawled downward without external force, and the time was recorded for the mouse to climb from the top of the pole to a bottom platform (a standard was that mouse hind limbs were landed on the ground). […] The average value of the mouse's three pole climbing times was calculated as the final pole climbing time. […] Data were presented as mean±SEM; n=10 per group.

For assay [4], the system named is ALS (SOD-G93A) mice. Briefly: Limb grip force test in ALS transgenic mice. The note with it: riluzole 5 mg/kg, FIG. 7. The format is in vivo. The procedure:
The limb grip force test is used directly to assess muscle strength of mice and the incidence of mice. […] After the start of administration, the grip force of the mice was tested every two weeks, and the measurement was repeated three times for each mouse, and the maximum value among the three results was taken as a maximum grip force of the mice. […] Data were presented as mean±SEM; n=10 per group.

Assay [5] relates to db/db mice. The assay is described as follows: Urinary protein level in db/db mice. Format: in vivo. The note with it: OLB-3 13.32 mg/kg once/d for 56 d, FIG. 2. The method, then: Mice of a normal control group (WT) and model mice were given normal saline 10 ml/kg/d, Losartan 10 mg/kg/d, TMP (5.0 mg/kg, 0.037 mmol/kg), and OLB-3 (13.32 mg/kg, 0.037 mmol/kg), at a volume of 10 m/kg, once/d, for continuous administration of 56 d, urine protein levels were measured after urine collection. Data were presented as mean±SEM; n=6 per group.

The next assay has as its system SH-SY5Y cells. Briefly: MTT assay of SH-SY5Y cell death caused by OGD. To be noted: 4 h OGD, FIG. 1. The format is cell-based. The method, then:
A neuroprotective effect of tetramethylpyrazine (TMP) and derivatives thereof was evaluated by MTT assay. Cells were incubated, cells in the logarithmic growth phase were collected, a concentration of a cell suspension was adjusted, an MTT-containing medium was added after dosing treatment and 4 h of incubation with OGD, incubation was conducted for 4 h, the medium in the wells was carefully removed, and 150 μl of dimethyl sulfoxide (DMSO) was added to each well, followed by shaking at a low speed for 10 min on a shaker to fully dissolve crystals, and an absorbance value of each well was measured at an OD (absorbance) value of 490 nm of an enzyme-linked immunosorbent assay instrument (at the same time, a zero adjustment well (medium, MTT, DMSO) and a control well (cells, a drug dissolution medium with the same concentration, medium, MTT, DMSO) were set). Data were presented as mean±SEM; n=8 per group.

The test system of assay [6] is 5*FAD mice. Briefly: Y-maze in 5*FAD mice. The format is in vivo. The note with it: 6-month-old 5*FAD mice treated 3 months; 2.63 and 13.32 mg/kg; FIG. 4. The method, then: (§1) 6-month-old 5*FAD mice were treated with OLB-3 for 3 months, and novel object recognition and Y-maze behavior were measured. Novel object recognition: during a training phase, the mice were exposed in a chamber to become familiar with two identical objects (A+A) for 5 min; during a testing phase, one of the familiar objects was replaced with another novel object (A+B), and the mice were put back in the chamber to detect probe objects for 5 min, while recording video and tracking the mice in real time. Probing was defined as a mouse with its nose pointed towards the object, sniffing or touching with its nose, and a distance of ≤2 cm was recorded from the nose to the object. A discriminant index (DI) is used to explore each object, and a calculation method thereof was as follows: (exploration time for new object−exploration time for old object)/(exploration time for new object+exploration time for old object)*100. Y-maze: an animal was placed at an end of one arm, and the sequence of the animals entering into each arm was recorded within 10 min. […] The 5*FAD mice were treated with low dosage (2.63 mg/kg, 0.007 mmol/kg, the same below) and high dosage (13.32 mg/kg, 0.037 mmol/kg, the same below) of the OLB-3 separately. Data were presented as mean±SEM; n=9-10 per group.

Assay [7] deals with SH-SY5Y neuroblastoma cells. Briefly: LPS-induced oxidative stress-related proteins in differentiated SH-SY5Y cells (ELISA). The format is cell-based. The note with it: 24 h, mean±SEM, n=8. The procedure: (§2) The SH-SY5Y cells were recovered and incubated, and the cells in the logarithmic growth phase were taken. After 24 h of incubation, SH-SY5Y neuroblastoma cells were treated with 1 μM all-trans retinoic acid to induce differentiation, and then inoculated into a 6-well culture dish for 24 h of incubation. Then, 0.2 μM (L) or 1 μM (H) OLB-3 and 1 μg/mL LPS were added to the medium, and treated for 24 h, a supernatant medium was aspirated, and changes of inflammatory factors and oxidative stress-related proteins were measured by an ELISA kit. Data were presented as mean±SEM; n=8 per group.
(An ELISA detects its analyte on a solid surface through an enzyme-linked reagent.)

Assay [8] has as its system 6-OHDA Parkinson's disease rats. The assay is described as follows: APO-induced rotations in 6-OHDA Parkinson's disease rats. Format: in vivo. The note with it: APO-induced 6-OHDA rats, 2 weeks of treatment; levodopa 25 mg/kg; FIG. 5. An excerpt: There was no rotations in a sham-operated group, and there was no significant difference between the groups injected with 6-OHDA, with about 180 rotations. […] Data were presented as mean±SEM; n=10 per group.

Assay [9] relates to SH-SY5Y neuroblastoma cells. The assay is described as follows: LPS-induced inflammatory factors in differentiated SH-SY5Y cells (ELISA). Format: cell-based. To be noted: 24 h, mean±SEM, n=8; for TNF-alpha: supernatant. The procedure:
as §2

Assay [10] has as its system 5*FAD mice. The assay is described as follows: Novel object recognition in 5*FAD mice. Format: in vivo. The note with it: 6-month-old 5*FAD mice treated 3 months; 2.63 and 13.32 mg/kg; FIG. 3. The method, then:
as §1

Setting [11] is: Table 3, once/d for 56 d, Losartan 15 mg/kg/d.
Setting [12] is: once/d for 56 d, Losartan 15 mg/kg/d.
[13] abbreviates: (H) high concentration (OLB-3 1 μM) + 1 μg/mL LPS.
[14] abbreviates: (L) low concentration (OLB-3 0.2 μM) + 1 μg/mL LPS.

Consider `CCCCc1nc(Cl)c(CO)n1Cc1ccc(-c2ccccc2-c2nn[nH]n2)cc1` [Losartan, reference compound], for which the Creatinine in the assay on db/db mice [1] (setting [11]) is given as 42.12 ± 1.72(c) μmol/L; in the assay with db/db mice [2] (Table 4, once/d for 56 d), 42.12 ± 1.72(c) μmol/L. Further, in the assay on db/db mice [1] (setting [12]), the Total cholesterol is 6.76 ± 0.46(c) mM. Besides, in the assay with db/db mice [2], the Urine albumin/creatinine was 582.74 ± 97.82(c) mg/g.
For the compound `Cc1nc(C)c(C(=O)OCOC(=O)OCCc2ccc(O)cc2)nc1C` [OLB-3], the “pole climbing time / bradykinesia” value in the assay on ALS (SOD-G93A) mice [3] is “significantly improve the symptoms of bradykinesia”. Besides, the limb grip force entry in the assay with ALS (SOD-G93A) mice [4] is listed as “effectively increase the limb force of mice”. Moreover, in the assay with db/db mice [1] (setting [11]), the Creatinine is listed as 42.42 ± 2.73(c) μmol/L and the Urea was 7.42 ± 0.31(c) mmol/L. Further, in the assay on db/db mice [1] (setting [12]), the Total cholesterol is 4.15 ± 0.18(c) mM and the Triglyceride is given as 9.61 ± 0.57(c) mg/dL. In the assay with db/db mice [1] (once/d for 56 d), the Glucose determination is recorded as 17.26 ± 1.42(c) mM, the Glycated hemoglobin is 517.83 ± 47.26(c) nmol/L, the High-density lipoprotein cholesterol is 1.62 ± 0.11(c) mM and the Low-density lipoprotein cholesterol was 0.52 ± 0.02(c) mM. In addition, the urinary protein levels entry in the assay with db/db mice [5] was “significantly reduced urinary protein levels”. Also, the “death of SH-SY5Y cells caused by OGD (MTT)” value in the assay on SH-SY5Y cells is recorded as “significantly reduce the death of SH-SY5Y cells caused by OGD”. For the same compound, the “time ratio in a novel different arm” value in the assay with 5*FAD mice [6] was “significantly increase a time ratio in a novel different arm”. Besides, in the assay on db/db mice [2] (Table 4, once/d for 56 d), the Creatinine is 42.42 ± 2.73(c) μmol/L and the Urea is listed as 7.42 ± 0.31(c) mmol/L. Moreover, the Urine albumin/creatinine with db/db mice [2] is on record as 443.82 ± 78.34(c) mg/g. In assay [7] (setting [13]), the GSH-Px is on record as 17.51 ± 1.17(c) umol/mg, the MDA is on record as 6.71 ± 0.51(c) nmol/mg and the SOD is given as 18.27 ± 1.02(c) nU/ml. Also, in assay [7] (setting [14]), the GSH-Px is 13.21 ± 1.92(c) umol/mg, the MDA was 11.10 ± 0.78(c) nmol/mg and the SOD was 14.96 ± 1.32(c) nU/ml. Besides, the number of rotations entry in [8] is listed as “effectively reduce the number of rotations”. Further, in [9] (setting [13]), the TNF-alpha was 4.19 ± 0.77(c) pg/ml, the IL1 is recorded as 4.27 ± 0.58(c) pg/ml and the IL6 is listed as 5.13 ± 0.63(c) pg/ml. Also, in [9] (setting [14]), the TNF-alpha is listed as 7.34 ± 1.38(c) pg/ml, the IL1 is recorded as 8.76 ± 1.56(c) pg/ml and the IL6 is listed as 9.34 ± 1.67(b) pg/ml. Besides, the “time ratio to explore novel objects” value in the assay with 5*FAD mice [10] is “significantly increase a time ratio to explore novel objects”.
In the assay with db/db mice [2], `Cc1nc(C)c(C)nc1C` [TMP, Tetramethylpyrazine, reference compound] returned a Urine albumin/creatinine of 661.82 ± 89.54 mg/g.
On to `CN(C)C(=N)N=C(N)N` [metformin, reference compound], for which, in the assay on db/db mice [1] (once/d for 56 d), the Glycated hemoglobin was 628.52 ± 50.59(c) nmol/L, the High-density lipoprotein cholesterol is reported as 2.19 ± 0.12(a) mM and the Low-density lipoprotein cholesterol is 0.59 ± 0.02(c) mM.
`Nc1nc2ccc(OC(F)(F)F)cc2s1` [riluzole, reference compound]: in the assay on ALS (SOD-G93A) mice [3], the “pole climbing time / bradykinesia” value is given as “significantly improve the symptoms of bradykinesia”. Further, the limb grip force entry with ALS (SOD-G93A) mice [4] is reported as “effectively increase the limb force of mice”.
